Legend:
[1] = molecular target: T1, human MDM2 protein (amino acids 2-188) (Homo sapiens, UniProt Q00987); assay: p53-MDM2 TR-FRET assay (p53-MDM2 Assay 1); type: binding; details: 1.25 nM MDM2-biotinylated, 10 nM Cy5-p53 peptide; read-out: IC50 (μM) of p53-Hdm2 inhibition (TR-FRET) Assay 1
T1 construct: human MDM2 protein (amino acids 2-188); made in house
Outline: (§1)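 C-terminally biotinylated MDM2 (aa 2-188, 1.25 nM) or MDM4 (aa 2-185, 2.5 nM) with Eu-streptavidin (0.625 nM), 15 min preincubation, then 10 nM Cy5-p53 peptide (aa18-26), 15 min room temperature; TR-FRET 665/620 nm ratio, IC50 by curve fit. Modified MDM2 Assay 2 uses 0.1 nM MDM2 and 0.1 nM Eu-streptavidin.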

[2] = molecular target: T2, human MDM4 protein (amino acids 2-185) (Homo sapiens, UniProt O15151); assay: p53-MDM4 TR-FRET assay (p53-MDM4 Assay 1); type: binding; details: 2.5 nM MDM4-biotinylated, 10 nM Cy5-p53 peptide; read-out: IC50 (μM) of p53-Hdm4 inhibition (TR-FRET) Assay 1
T2 construct: human MDM4 protein (amino acids 2-185); made in house
T2 sequence (O15151 2-185): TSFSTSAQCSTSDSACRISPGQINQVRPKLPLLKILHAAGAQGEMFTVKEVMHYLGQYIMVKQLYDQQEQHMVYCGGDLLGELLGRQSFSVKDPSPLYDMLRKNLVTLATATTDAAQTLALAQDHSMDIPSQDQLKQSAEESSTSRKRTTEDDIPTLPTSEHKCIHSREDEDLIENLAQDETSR
Outline: as §1

T1 sequence (Q00987 2-188): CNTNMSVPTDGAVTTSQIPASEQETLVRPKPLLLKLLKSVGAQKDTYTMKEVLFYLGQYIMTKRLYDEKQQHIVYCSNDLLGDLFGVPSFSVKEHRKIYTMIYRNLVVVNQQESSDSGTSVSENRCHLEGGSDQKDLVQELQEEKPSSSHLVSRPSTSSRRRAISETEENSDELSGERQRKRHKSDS

IC50 [1]	IC50 [2]	Structure (SMILES)
0.0432 µM	44.5 µM	COc1cc2c(cc1OC(C)C)[C@H](c1ccc(Cl)cc1)N(c1ccc(C(C)(O)C3CCOC3)cc1)C(=O)C2 (stereo partly drawn) [Example 48, (S)-1-(4-Chloro-phenyl)-2-{4-[1-hydroxy-1-(tetrahydro-furan-3-yl)-ethyl]-phenyl}-7-isopropoxy-6-methoxy-1,4-dihydro-2H-isoquinolin-3-one]
0.011 µM	8.07 µM	COc1cc2c(cc1OC(C)C)[C@H](c1ccc(Cl)cc1)N(c1ccc(C(C)(O)C3CCNC(=O)C3)cc1)C(=O)C2 (stereo partly drawn) [Example 49, (S)-1-(4-Chloro-phenyl)-2-{4-[1-hydroxy-1-(2-oxo-piperidin-4-yl)-ethyl]-phenyl}-7-isopropoxy-6-methoxy-1,4-dihydro-2H-isoquinolin-3-one]
0.246 µM	90.2 µM	COc1cc2c(cc1OC(C)C)[C@H](c1ccc(Cl)cc1)N(c1ccc(C3(O)CCCC3)cc1)C(=O)C2 [Example 50, (S)-1-(4-Chloro-phenyl)-2-[4-(1-hydroxy-cyclopentyl)-phenyl]-7-isopropoxy-6-methoxy-1,4-dihydro-2H-isoquinolin-3-one]
0.0731 µM	45.3 µM	COc1cc2c(cc1OC(C)C)[C@H](c1ccc(Cl)cc1)N(c1ccc(C3(O)CCC3)cc1)C(=O)C2 [Example 51, (S)-1-(4-Chloro-phenyl)-2-[4-(1-hydroxy-cyclobutyl)-phenyl]-7-isopropoxy-6-methoxy-1,4-dihydro-2H-isoquinolin-3-one]
0.0926 µM	26.3 µM	COc1cc2c(cc1OC(C)C)[C@H](c1ccc(Cl)cc1)N(c1ccc(C3(O)CN(C(=O)OC(C)(C)C)C3)cc1)C(=O)C2 [Example 55, 3-{4-[(S)-1-(4-Chloro-phenyl)-7-isopropoxy-6-methoxy-3-oxo-3,4-dihydro-1H-isoquinolin-2-yl]-phenyl}-3-hydroxy-azetidine-1-carboxylic acid tert-butyl ester]
0.186 µM	88.4 µM	CNC(=O)N1CC(O)(c2ccc(N3C(=O)Cc4cc(OC)c(OC(C)C)cc4[C@@H]3c3ccc(Cl)cc3)cc2)C1 [Example 60, 3-{4-[(S)-1-(4-Chloro-phenyl)-7-isopropoxy-6-methoxy-3-oxo-3,4-dihydro-1H-isoquinolin-2-yl]-phenyl}-3-hydroxy-azetidine-1-carboxylic acid methylamide]
0.342 µM	77 µM	COc1cc2c(cc1OC(C)C)[C@H](c1ccc(Cl)cc1)N(c1ccc(C3(O)CN(S(C)(=O)=O)C3)cc1)C(=O)C2 [Example 62, (S)-1-(4-Chloro-phenyl)-2-[4-(3-hydroxy-1-methanesulfonyl-azetidin-3-yl)-phenyl]-7-isopropoxy-6-methoxy-1,4-dihydro-2H-isoquinolin-3-one]
0.0154 µM	40.5 µM	COc1cc2c(cc1OC(C)C)[C@H](c1ccc(Cl)cc1)N(c1ccc(C(C)(O)C3CCCCC3)cc1)C(=O)C2 (stereo partly drawn) [Example 63, (S)-1-(4-Chloro-phenyl)-2-[4-(1-cyclohexyl-1-hydroxy-ethyl)-phenyl]-7-isopropoxy-6-methoxy-1,4-dihydro-2H-isoquinolin-3-one]
0.0072 µM	10.6 µM	COc1cc2c(cc1OC(C)C)[C@H](c1ccc(Cl)cc1)N(c1ccc(C(C)(O)C3CN(C(=O)OC(C)(C)C)C3)cc1)C(=O)C2 (stereo partly drawn) [Example 64, 3-(1-{4-[(S)-1-(4-Chloro-phenyl)-7-isopropoxy-6-methoxy-3-oxo-3,4-dihydro-1H-isoquinolin-2-yl]-phenyl}-1-hydroxy-ethyl)-azetidine-1-carboxylic acid tert-butyl ester]
0.0423 µM	41.2 µM	COc1cc2c(cc1OC(C)C)[C@H](c1ccc(Cl)cc1)N(c1ccc(C(C)(O)C3CNC3)cc1)C(=O)C2 (stereo partly drawn) [Example 65, (S)-2-[4-(1-Azetidin-3-yl-1-hydroxy-ethyl)-phenyl]-1-(4-chloro-phenyl)-7-isopropoxy-6-methoxy-1,4-dihydro-2H-isoquinolin-3-one]
0.0146 µM	13.5 µM	COc1cc2c(cc1OC(C)C)[C@H](c1ccc(Cl)cc1)N(c1ccc(C(C)(O)C3CN(C(C)=O)C3)cc1)C(=O)C2 (stereo partly drawn) [Example 66, (S)-2-{4-[1-(1-Acetyl-azetidin-3-yl)-1-hydroxy-ethyl]-phenyl}-1-(4-chloro-phenyl)-7-isopropoxy-6-methoxy-1,4-dihydro-2H-isoquinolin-3-one]
0.0152 µM	16.7 µM	CNC(=O)N1CC(C(C)(O)c2ccc(N3C(=O)Cc4cc(OC)c(OC(C)C)cc4[C@@H]3c3ccc(Cl)cc3)cc2)C1 (stereo partly drawn) [Example 67, 3-(1-{4-[(S)-1-(4-Chloro-phenyl)-7-isopropoxy-6-methoxy-3-oxo-3,4-dihydro-1H-isoquinolin-2-yl]-phenyl}-1-hydroxy-ethyl)-azetidine-1-carboxylic acid methylamide]
0.0152 µM	15 µM	COc1cc2c(cc1OC(C)C)[C@H](c1ccc(Cl)cc1)N(c1ccc(C(C)(O)C3CN(C(=O)N(C)C)C3)cc1)C(=O)C2 (stereo partly drawn) [Example 68, 3-(1-{4-[(S)-1-(4-Chloro-phenyl)-7-isopropoxy-6-methoxy-3-oxo-3,4-dihydro-1H-isoquinolin-2-yl]-phenyl}-1-hydroxy-ethyl)-azetidine-1-carboxylic acid dimethylamide]
0.0363 µM	40.5 µM	COc1cc2c(cc1OC(C)C)[C@H](c1ccc(Cl)cc1)N(c1ccc(C(C)(O)C3CN(CCC(F)(F)F)C3)cc1)C(=O)C2 (stereo partly drawn) [Example 69, (S)-1-(4-Chloro-phenyl)-2-(4-{1-hydroxy-1-[1-(3,3,3-trifluoro-propyl)-azetidin-3-yl]-ethyl}-phenyl)-7-isopropoxy-6-methoxy-1,4-dihydro-2H-isoquinolin-3-one]
0.0547 µM	60.1 µM	COc1cc2c(cc1OC(C)C)[C@H](c1ccc(Cl)cc1)N(c1ccc(C(C)(O)C3CN(C)C3)cc1)C(=O)C2 (stereo partly drawn) [Example 70, (S)-1-(4-Chloro-phenyl)-2-{4-[1-hydroxy-1-(1-methyl-azetidin-3-yl)-ethyl]-phenyl}-7-isopropoxy-6-methoxy-1,4-dihydro-2H-isoquinolin-3-one]
0.026 µM	30.1 µM	CCN1CC(C(C)(O)c2ccc(N3C(=O)Cc4cc(OC)c(OC(C)C)cc4[C@@H]3c3ccc(Cl)cc3)cc2)C1 (stereo partly drawn) [Example 71, (S)-1-(4-Chloro-phenyl)-2-{4-[1-(1-ethyl-azetidin-3-yl)-1-hydroxy-ethyl]-phenyl}-7-isopropoxy-6-methoxy-1,4-dihydro-2H-isoquinolin-3-one]
0.0234 µM	18.4 µM	COc1cc2c(cc1OC(C)C)[C@H](c1ccc(Cl)cc1)N(c1ccc(C(C)(O)C3CN(C(C)C)C3)cc1)C(=O)C2 (stereo partly drawn) [Example 72, (S)-1-(4-Chloro-phenyl)-2-{4-[1-hydroxy-1-(1-isopropyl-azetidin-3-yl)-ethyl]-phenyl}-7-isopropoxy-6-methoxy-1,4-dihydro-2H-isoquinolin-3-one]
0.0179 µM	18.9 µM	COc1cc2c(cc1OC(C)C)[C@H](c1ccc(Cl)cc1)N(c1ccc(C(C)(O)C3CN(S(C)(=O)=O)C3)cc1)C(=O)C2 (stereo partly drawn) [Example 73, (S)-1-(4-Chloro-phenyl)-2-{4-[1-hydroxy-1-(1-methanesulfonyl-azetidin-3-yl)-ethyl]-phenyl}-7-isopropoxy-6-methoxy-1,4-dihydro-2H-isoquinolin-3-one]

— US8859535B2, “Hydroxy substituted isoquinolinone derivatives” (Novartis AG, priority 2011, dated 2014)
